From US20100298375A1, “MEDICAMENT COMPRISING A CARBOSTYRIL DERIVATIVE AND DONEPEZIL FOR TREATING ALZHEIMER'S DISEASE” (priority 2007, published 2010)
Where a name gives a salt, the structure may show the parent alone.

Tested on: women suffering from Alzheimer's disease
Assay: mini-mental state examination (MMSE) in patients with Alzheimer's disease
Format: in vivo
Method: To two women suffering from Alzheimer's disease (one was […] and the other was […]), donepezil hydrochloride (Aricept®) had been administered in a dose of 5 mg/day for 12 months and 9 months, respectively. […] At the beginning time of the experiment (0 month), the administration of cilostazol in a dose of 100 mg/day started as the combination with donepezil hydrochloride.

COc1cc2c(cc1OC)C(=O)C(CC1CCN(Cc3ccccc3)CC1)C2 (stereo not drawn) [donepezil hydrochloride]
MMSE Score (Patient 1, at start of cilostazol, donepezil hydrochloride 5 mg/day alone until then): 13 | MMSE Score (Patient 1, −3 Ms, donepezil hydrochloride 5 mg/day alone): 16 | MMSE Score (Patient 1, −6 Ms, donepezil hydrochloride 5 mg/day alone): 17 | MMSE Score (Patient 1, −9 Ms, donepezil hydrochloride 5 mg/day alone): 17 | MMSE Score (Patient 2, at start of cilostazol, donepezil hydrochloride 5 mg/day alone until then): 6 | MMSE Score (Patient 2, −3 Ms, donepezil hydrochloride 5 mg/day alone): 10 | MMSE Score (Patient 2, −6 Ms, donepezil hydrochloride 5 mg/day alone): 12 | MMSE Score (Patient 2, −9 Ms, donepezil hydrochloride 5 mg/day alone): 13 | MMSE Score (Patient 2, −12 Ms, donepezil hydrochloride 5 mg/day alone): 16
